pIC50: −log10 of the molar value. Structures can show the parent of a compound that is named as a salt.
How the values were obtained:
[1] = biological target: HIV-1 integrase (Human immunodeficiency virus type 1 group M subtype B, UniProt P12497); assay: HIV-1 integrase inhibition assay (microtiter plate, substrate/target DNA, OD 405 nm)
Description: (2) Calculations of the Percent Inhibitions (the IC50 Values of Test Compounds)
Streptavidin, obtained from Vector Laboratories, was dissolved in 0.1 M carbonate buffer (composition: 90 mM Na2CO3, 10 mM NaHCO3) at concentration of 40 μg/ml. After coating each well of microtiter plates (obtained from NUNC) with 50 μl of the above solution at 4° C. over night, each well was washed twice with PBS (composition: 13.7 mM NaCl, 0.27 mM KCl, 0.43 mM Na2HPO4, 0.14 mM KH2PO4) and blocked with 300 μl of 1% skim milk in PBS for 30 min. Additionally, each well was washed twice with PBS and added 50 μl of substrate DNA solution (2 pmol/μl). The microtiter plates were kept at room temperature for 30 min. Then, each well was washed twice with PBS and once with H2O.
Subsequently, in the each well prepared above were added 45 μl of the reaction buffer prepared from 12 μl of the buffer (composition: 150 mM MOPS (pH 7.2), 75 mM MnCl2, 50 mM 2-mercaptoethanol, 25% glycerol, 500 μg/ml bovine serum albumin-fraction V), 1 μl of target DNA (5 pmol/μl), and 32 μl of the distilled water. Additionally, 6 μl of either a test compound in DMSO or DMSO for positive control(PC) was mixed with the above reaction buffer, then 9 μl of an integrase solution (30 pmol) was added and mixed well. In the well of negative control (NC) was added 9 μl of the integrase dilution buffer (composition: 20 mM MOPS (pH7.2), 400 mM potassium glutamate, 1 mM EDTA, 0.1% NP-40, 20% glycerol, 1 mM DTT, 4M urea).
The microtiter plates were incubated at 30° C. for 1 hour. The reaction solution was removed and each well was washed twice with PBS. Subsequently, each well of the microtiter plates was filled with 100 μl of anti-digoxigenin antibody labeled with alkaline phosphatase (Sheep Fab fragment: obtained from Boehringer) and incubated at 30° C. for 1 hour. Then, each well was washed twice with 0.05% Tween20 in PBS and once with PBS. Next, 150 μl of the Alkaline phosphatase reaction buffer (composition: 10 mM p-Nitrophenylphosphate (obtained from Vector Laboratories), 5 mM MgCl2, 100 mM NaCl, 100 mM Tris-HCl (pH 9.5))was added in each well. […] The optical density (OD) at 405 nm of each well was measured and the percent inhibition was determined by the following expression.
The percent inhibition (%)=100[1-{(C abs.−NC abs.)/(PC abs.−NC abs.)}]
C abs.; the OD of the well of the compounds
NC abs.: the OD of the negative control (NC)
PC abs.: the OD of the positive control (PC)
IC50(μg/ml)=x−{(X−50)(x−y)/(X−Y)}

`O=C(C=C(O)c1ncc[nH]1)c1ccc(Cc2ccc(F)cc2)o1` (as salt: hydrochloride) [I-101, 1-[5-(4-Fluorobenzyl)furan-2-yl]-3-hydroxy-3-(1H-imidazol-2-yl)-propenone hydrochloride] gave a melting point of 186 to 191 °C.
In the case of `O=C(/C=C(\O)c1nc[nH]n1)c1cc(C(=O)O)n(Cc2ccccc2)c1` [I-2, 1-[(1-Benzyl-5-carboxy)pyrrol-3-yl]-3-hydroxy-3-(1H-1,2,4-triazol-3-yl)-propenone], the melting point was 264 to 265 °C and the pIC50 [1] was 5.53.
`O=C(C=C(O)c1nc[nH]n1)c1c[nH]cc1Cc1ccc(F)cc1` [I-14, 1-[4-(4-Fluorobenzyl)pyrrol-3-yl]-3-hydroxy-3-(1H-1,2,4-triazol-3-yl)-propenone] gave a melting point of 210 to 213 °C.
Compound `O=C(O)C(O)=CC(=O)c1cc[nH]c1` [I-22, 2-Hydroxy-4-oxo-4-(pyrrol-3-yl)-2-butenoic acid] has a melting point of 185 to 192 °C.
Compound `O=C(O)C(O)=CC(=O)c1ccn(S(=O)(=O)c2ccccc2)c1` [I-23, 4-(1-Benzenesulfonylpyrrol-3-yl)-2-hydroxy-4-oxo-2-butenoic acid] has a melting point of 186 to 188 °C.
With `O=C(C=C(O)c1nn[nH]n1)c1c[nH]cc1CCc1ccccc1` [I-25, 3-Hydroxy-1-[(4-(2-phenylethyl))pyrrol-3-yl]-3-(2H-tetrazol-5-yl)-propenone] the melting point was 228 to 230 °C.
Work on `O=C(C=C(O)c1nn[nH]n1)c1cn(S(=O)(=O)c2ccccc2)cc1CCc1ccccc1` [I-31, 1-[[1-Benzenesulfonyl-4-(2-phenylethyl)]pyrrol-3-yl]-3-hydroxy-3-(2H-tetrazol-5-yl)-propenone] yielded a melting point of 178 to 181 °C.
Compound `CCCn1cc(Cc2ccc(F)cc2)c(C(=O)C=C(O)c2nc[nH]n2)c1` [I-35, 1-[[4-(4-Fluorobenzyl)-1-n-propyl]pyrrol-3-yl]-3-hydroxy-3-(1H-1,2,4-triazol-3-yl)-propenone] has a melting point of 210 to 211 °C.
`O=C(C=C(O)c1nc[nH]n1)c1occc1Cc1ccc(F)cc1` [I-45, 1-[3-(4-Fluorobenzyl)furan-2yl]-3-hydroxy-3-(1H-1,2,4-triazol-3-yl)-propenone] gave a melting point of 221 to 223 °C.
Compound `O=C(C=C(O)c1nn[nH]n1)c1occc1Cc1ccc(F)cc1` [I-46, 1-[3-(4-Fluorobenzyl)furan-2-yl]-3-hydroxy-3-(2H-tetrazol-5-yl)-propenone] has a melting point of 171 to 174 °C.
In the case of `O=C(C=C(O)c1nc[nH]n1)c1ccoc1Cc1ccc(F)cc1` [I-49, 1-[2-(4-Fluorobenzyl)furan-3-yl]-3-hydroxy-3-(1H-1,2,4-triazol-3-yl)-propenone], the melting point was 170 to 177 °C.
For `O=C(C=C(O)c1nn[nH]n1)c1ccoc1Cc1ccc(F)cc1` [I-52, 1-[2-(4-Fluorobenzyl)furan-3-yl]-3-hydroxy-3-(2H-tetrazol-5-yl)-propenone], the melting point was 150 to 153 °C.
`COC(=O)C(O)=CC(=O)c1ccc(Cc2ccc(F)cc2)o1` [I-53, 4-[5-(4-Fluorobenzyl)furan-2-yl]-2-hydroxy-4-oxo-2-butenoic acid methyl ester] gave a melting point of 102 to 104 °C and a pIC50 [1] of 5.10.
In the case of `O=C(O)C(O)=CC(=O)c1ccc(Cc2ccc(F)cc2)o1` [I-54, 4-[5-(4-Fluorobenzyl)furan-2-yl]-2-hydroxy-4-oxo-2-butenoic acid], the melting point was 145 to 148 °C and the pIC50 [1] was 6.08.
Compound `O=C(C=C(O)c1nn[nH]n1)c1ccc(Cc2ccc(F)cc2)o1` [I-55, 1-[5-(4-Fluorobenzyl)furan-2-yl]-3-hydroxy-3-(2H-tetrazol-5-yl)-propenone] has a melting point of 121 to 123 °C.
For `Cc1nc(C(O)=CC(=O)c2ccc(Cc3ccc(F)cc3)o2)n[nH]1` [I-60, 1-[5-(4-Fluorobenzyl)furan-2-yl]-3-hydroxy-3-(5-methyl-1H-1,2,4-triazol-3-yl)-propenone], the melting point was 179 to 182 °C and the pIC50 [1] was 5.68.
Work on `Cc1cc(Cc2ccc(F)cc2)oc1C(=O)C=C(O)c1nc[nH]n1` [I-61, 1-[[5-(4-Fluorobenzyl)-3-methyl]furan-2-yl]-3-hydroxy-3-(1H-1,2,4-triazol-3-yl)-propenone] yielded a melting point of 191 to 192 °C and a pIC50 [1] of 5.68.
In the case of `O=C(C=C(O)c1nc[nH]n1)c1ccc(Sc2ccc(F)cc2)o1` [I-68, 1-[5-(4-Fluorophenylthio)furan-2-yl]-3-hydroxy-3-(1H-1,2,4-triazol-3-yl)-propenone], the pIC50 [1] was 6.00.
Work on `O=C(C=C(O)c1nc[nH]n1)c1ccc(Sc2ccc(F)cc2F)o1` [I-70, 1-[5-(2,4-Difluorophenylthio)furan-2-yl]-3-hydroxy-3-(1H-1,2,4-triazol-3-yl)-propenone] yielded a melting point of 158 to 160 °C and a pIC50 [1] of 5.92.
`O=C(C=C(O)c1nc[nH]n1)c1ccc(Cc2ccc(F)cc2F)o1` [I-74, 1-[5-(2,4-Difluorobenzyl)furan-2-yl]-3-hydroxy-3-(1H-1,2,4-triazol-3-yl)-propenone] gave a melting point of 171 to 173 °C and a pIC50 [1] of 5.89.
Compound `O=C(C=C(O)c1nc[nH]n1)c1ccc(Cc2ccccc2Cl)o1` [I-80, 1-[5-(2-Chlorobenzyl)furan-2-yl]-3-hydroxy-3-(1H-1,2,4-triazol-3-yl)-propenone] has a melting point of 169 to 171 °C and a pIC50 [1] of 5.79.
With `O=C(C=C(O)c1nc[nH]n1)c1ccc(Cc2cccs2)o1` [I-83, 3-Hydroxy-1-[[5-(thiophen-2-yl)methyl]furan-2-yl]-3-(1H-1,2,4-triazol-3-yl)-propenone] the melting point was 207 to 208 °C and the pIC50 [1] was 5.30.
`O=C(C=C(O)c1nc[nH]n1)c1ccc(Cc2ccsc2)o1` [I-85, 3-Hydroxy-1-[[5-(thiophen-3-yl)methyl]furan-2-yl]-3-(1H-1,2,4-triazol-3-yl)-propenone] gave a melting point of 210 to 211 °C and a pIC50 [1] of 5.33.
`O=C(C=C(O)c1nc[nH]n1)c1cc(Cl)c(Cc2ccc(F)cc2)o1` [I-86, 1-[4-Chloro-5-(4-fluorobenzyl)furan-2-yl]-3-hydroxy-3-(1H-1,2,4-triazol-3-yl)-propenone] showed a melting point of 203 to 204 °C and a pIC50 [1] of 5.84.
Work on `O=C(C=C(O)c1nc[nH]n1)c1ccc(Cc2ccsc2Cl)o1` [I-91, 1-[[5-(2-Chlorothiophen-3-yl)methyl]furan-2-yl]-3-hydroxy-3-(1H-1,2,4-triazol-3-yl)-propenone] yielded a melting point of 105 to 106 °C and a pIC50 [1] of 5.75.
For `O=C(C=C(O)c1nc[nH]n1)c1ccc(C(O)c2ccc(F)cc2)o1` (stereo not shown) [I-94, 1-[5-(4-Fluorophenyl-hydroxy-methyl)furan-2-yl]-3-hydroxy-3-(1H-1,2,4-triazol-3-yl)-propenone], the melting point was 191 to 192 °C (dec.) and the pIC50 [1] was 5.31.
Compound `Cc1nc(C(O)=CC(=O)c2ccc(Cc3ccc(F)cc3)o2)cs1` [I-96, 1-[5-(4-Fluorobenzyl)furan-2-yl]-3-hydroxy-3-(2-methylthiazol-4-yl)-propenone] has a melting point of 96 to 98 °C and a pIC50 [1] of 5.61.
`COCc1nc(C(O)=CC(=O)c2ccc(Cc3ccc(F)cc3)o2)n[nH]1` [I-97] gave a melting point of 167 to 168 °C and a pIC50 [1] of 5.77.
`CCc1nc(C(O)=CC(=O)c2ccc(Cc3ccc(F)cc3)o2)n[nH]1` [I-98, 3-(5-Ethyl-1H-1,2,4-triazol-3-yl)-1-[5-(4-fluorobenzyl)furan-2-yl]-3-hydroxy-propenone] showed a melting point of 204 to 205 °C and a pIC50 [1] of 5.87.
`CC(C)c1nc(C(O)=CC(=O)c2ccc(Cc3ccc(F)cc3)o2)n[nH]1` [I-99, 1-[5-(4-Fluorobenzyl)furan-2-yl]-3-hydroxy-3-(5-isopropyl-1H-1,2,4-triazol-3-yl)-propenone] gave a melting point of 146 to 147 °C and a pIC50 [1] of 5.73.
Compound `O=C(C=C(O)c1ncc[nH]1)c1ccc(Cc2ccc(F)cc2)o1` [I-101, 1-[5-(4-Fluorobenzyl)furan-2-yl]-3-hydroxy-3-(1H-imidazol-2-yl)-propenone hydrochloride] has a pIC50 [1] of 5.77.
`O=C(C=C(O)c1nccs1)c1ccc(Cc2ccc(F)cc2)o1` [I-104, 1-[5-(4-Fluorobenzyl)furan-2-yl]-3-hydroxy-3-(thiazol-2-yl)-propenone] gave a pIC50 [1] of 5.75.
`O=C(C=C(O)c1ccccn1)c1ccc(Cc2ccc(F)cc2)o1` [I-106, 1-[5-(4-Fluorobenzyl)furan-2-yl]-3-hydroxy-3-(pyridin-2-yl)-propenone] showed a melting point of 84 to 85 °C.
Work on `NC(=O)C(O)=CC(=O)c1ccc(Cc2ccc(F)cc2)o1` [I-134, 4-[5-(4-Fluorobenzyl)furan-2-yl]-2-hydroxy-4-oxo-2-butenoic acid amide] yielded a melting point of 113 to 115 °C.
Work on `O=C(Nc1ccccn1)C(O)=CC(=O)c1ccc(Cc2ccc(F)cc2)o1` [I-135, 4-[5-(4-Fluorobenzyl)furan-2-yl]-2-hydroxy-4-oxo-2-butenoic acid pyridin-2-yl amide] yielded a melting point of over 250 °C.
In the case of `O=C(Nc1nccs1)C(O)=CC(=O)c1ccc(Cc2ccc(F)cc2)o1` [I-136, 4-[5-(4-Fluorobenzyl)furan-2-yl]-2-hydroxy-4-oxo-2-butenoic acid thiazol-2-yl amide], the melting point was 198 °C (dec.).
For `O=C(Nc1ccccc1)C(O)=CC(=O)c1ccc(Cc2ccc(F)cc2)o1` [I-137, 4-[5-(4-Fluorobenzyl)furan-2-yl]-2-hydroxy-4-oxo-2-butenoic acid phenyl amide], the melting point was 132 to 134 °C.
In the case of `O=C(Nc1nc[nH]n1)C(O)=CC(=O)c1ccc(Cc2ccc(F)cc2)o1` [I-138, 4-[5-(4-Fluorobenzyl)furan-2-yl]-2-hydroxy-4-oxo-2-butenoic acid (1H-1,2,4-triazol-3-yl)amide], the melting point was 250 °C (dec.).
With `O=C(Nc1nncs1)C(O)=CC(=O)c1ccc(Cc2ccc(F)cc2)o1` [I-139, 4-[5-(4-Fluorobenzyl)furan-2-yl]-2-hydroxy-4-oxo-2-butenoic acid ([1,3,4]thiadiazol-2-yl)amide] the melting point was 199 to 201 °C (dec.).
`O=C(C=C(O)c1ccccn1)c1cnc(Cc2ccc(F)cc2)o1` [I-151, 1-[2-(4-Fluorobenzyl)oxazolyl-5-yl]-3-hydroxy-3-(pyridin-2-yl)-propenone] gave a melting point of 108 to 109 °C.
Work on `O=C(C=C(O)c1ncccn1)c1cnc(Cc2ccc(F)cc2)o1` [I-152, 1-[2-(4-Fluorobenzyl)oxazolyl-5-yl]-3-hydroxy-3-(pyrimidin-2-yl)-propenone] yielded a melting point of 97 to 100 °C.

Source: patent publication US6620841B1, “Aromatic heterocycle compounds having HIV integrase inhibiting activities” (Shionogi & Co., Ltd., priority 1998, dated 2003)
